Patent publication US8232315B2, “Methods for treating drug addiction and improving addiction-related behavior” (SK Biopharmaceuticals Co., Ltd., priority 2009, dated 2012)
“Also recorded” adds a separate entry of the source. Like-named read-outs stand apart in the source and are kept apart here.

What was measured:
[1] = system: rats trained to discriminate cocaine (10 mg/kg) from saline; assay: Substitution for the discriminative stimulus effects of cocaine in rats (two-lever drug discrimination); assay type: in vivo, Sprague-Dawley rats; conditions: for ED50: Rattus norvegicus, linear regression against log10 doses from 10 to 100 mg/kg
Experimental: Test compound was tested for its ability to substitute for the discriminative stimulus effects of cocaine (10 mg/kg) in rats.
Six male Sprague-Dawley rats were trained to discriminate cocaine (10 mg/kg) from saline using a two-lever choice methodology. Food was available as a reinforcer under a fixed ratio 10 schedule when responding occurred on the injection appropriate lever. All tests occurred in standard, commercially available chambers (Coulbourn Instruments), using 45 mg food pellets (Bioserve) as reinforcers.
Training sessions occurred in a double alternating fashion, and tests were conducted between pairs of identical training sessions (i.e., between either two saline or two cocaine training sessions). Tests occurred only if, in the two preceding training sessions, subjects met the criteria of emitting 85% of responses on the injection correct lever for both the first reinforcer (first fixed ratio) and the total session. Test sessions lasted for twenty minutes, or until twenty reinforcers had been obtained. Doses of the test compound for which fewer, than three rats completed the first fixed ratio were not considered in the characterization of discriminative stimulus effects.
Intraperitoneal injections (1 ml/kg) of test compound, or its vehicle (0.9% saline), occurred 60 minutes prior to the start of the test session. A starting dose for test compound of 2.5 mg/kg was determined based upon data supplied by the project officer, and a dose range of 2.5 to 100 mg/kg was examined.

[2] = system: rhesus monkeys trained to self-administer cocaine; assay: Cocaine self-administration, dose-ranging studies with peak unit dose of i.v. cocaine and food components; assay type: in vivo, rhesus monkeys (Macaca mulatta)
Experimental: (§1) The test compound (O-carbamoyl-(D)-phenylalaminol) was tested for the effects on cocaine self-administration in rhesus monkeys. Rhesus monkeys were trained to self-administer cocaine (0.032 mg/kg/inj, i.v.) and 1 g banana-flavored food pellets during 2-hr experimental sessions in the Rapid Assessment Procedure. Each session consisted of four 20-min components of drug availability (100-min), each separated by a 5-min timeout period. The four components of drug availability were preceded and followed by […] components of food availability. During training, unit doses of cocaine were varied across components of the session (0.001-0.03 or 0.01-0.32 mg/kg/inj) to provide full dose effect curves for cocaine self-administration. The position and slope of the dose-effect curve varied among monkeys and, generally, was represented by an inverted-U shape function characteristic for cocaine self-administration under fixed-ratio schedules. In some sessions, the unit dose of cocaine at the peak of the dose-effect curve for i.v. self-administration (0.0032 or 0.032 mg/kg/inj) was kept constant across components of the session. After baseline cocaine dose-effect curves and the effects of peak dose availability throughout the session were stable, experiments with test compound were begun.
Two types of cocaine self-administration experiments were conducted to evaluate pretreatment with test compound: (1) test compound dose-ranging studies and (2) effects of a single dose of test compound on cocaine dose-effect curves. In initial dose-ranging experiments, test compound was studied in individual monkeys by administering i.m. doses of 10-32 mg/kg 30-min before the session.
(§2) Subjects. Five male rhesus monkeys (Macaca mulatta), 89B013, 96D155, 97D105, RQ22 15, and 93N082, were trained to respond for the delivery of 1-g banana pellets under a program of gradually increasing values of a fixed-ratio (FR) schedule until performance was maintained under the terminal FR 30 response schedule. Then, a double-lumen intravenous catheter was surgically implanted under aseptic-conditions in each monkey. Subsequently, monkeys were trained to respond for cocaine (see below). All monkeys were maintained under identical housing conditions as specified under contract DA-7-8073. Individual monkeys had visual, auditory, and olfactory contact with other monkeys, and several types of enrichment devices were provided in the home chamber.
(§3) Apparatus. All experimental equipment was identical to that used in our previously described drug self-administration studies. Briefly, each monkey was housed individually in a well-ventilated stainless steel chamber (64×64×79 cm). The home cages of all monkeys were modified to include an operant panel (28×28 cm) mounted on the front wall and fitted with response keys that could be trans-illuminated by red or green stimulus lights (LEDs). The operant panel also supported an externally-mounted pellet dispenser (Gerbrands, Model G5210) that delivered 1 gm fruit-flavored food pellets (P. J. Noyes Co., Lancaster, N.H.) to a food receptacle mounted on the cage beneath the operant response panel. Two syringe pumps (Model B5P-IE, Braintree Scientific, Braintree, Mass.; or Model 980210, Harvard Apparatus, South Natick, Mass.) were mounted above each cage for delivery of saline or drug solutions through the double-lumen intravenous catheters. Operation of the operant panels and data collection were accomplished with an LBM-compatible computer supplied by Med Associates, Inc., and located in an adjacent room. The experimental control hardware was supplied by Med Associates, Inc., and was controlled by customized-software written in MedState Notation.
(§4) Test sessions. A diagram of the Rapid Assessment Procedure is shown in the drawing. Test sessions occurred twice daily beginning at 11 a.m. and 3 p.m. […]

[3] = system: rhesus monkeys trained to self-administer cocaine; assay: Cocaine self-administration, Rapid Assessment (Rapid Dose Effect) Procedure, cocaine dose-effect curve; assay type: in vivo, rhesus monkeys (Macaca mulatta)
Experimental: as §1
Next, the Rapid Assessment Procedure was used to evaluate the effects of a single i.m. dose of test compound on self-administration of a range of unit doses of cocaine within a single experimental session. […] During rapid assessment studies, food-maintained behavior was disrupted in two monkeys and unaffected in the remaining two monkeys, resulting in a >50% decrease in averaged response rates prior to or following sessions of cocaine self-administration.
as §2, §3, §4

[4] = 32 mg/kg i.m. pretreatment, averaged for the group
[5] = 32 mg/kg i.m., monkeys 96D155, 93N082 and 97D105

In the case of NC(=O)OC[C@H](N)Cc1ccccc1 [test compound, O-carbamoyl-(D)-phenylalaminol], the ED50 ([1]; i.p. 60 min before session, read-out: ED50, substitution for the discriminative stimulus effects of 10 mg/kg cocaine, total session) is reported as 37.4 mg/kg, the ED50 ([1]; ip, read-out: ED50, substitution for cocaine, first reinforcer) is reported as 37.5 mg/kg and the “Substitution for the discriminative stimulus effects of 10 mg/kg cocaine” value ([1]; dose range 2.5 to 100 mg/kg i.p.) is reported as “substituted fully; also recorded: fully substituted”. For the same compound, the “Response rate, % of vehicle control, first reinforcer” value ([1]; following 100 mg/kg i.p.) was 37%, the “Response rate, % of vehicle control, total session” value ([1]; following 100 mg/kg i.p.) was 41% and the “Effect on i.v. cocaine self-administration behavior” value ([2]; 10 mg/kg i.m., any of the four monkeys) was “did not alter”. The “Effect on self-administration of the peak unit dose of i.v. cocaine” value ([2]; 10 mg/kg i.m., averaged for the group) was “did not have consistent effects; also recorded: without appreciable effect”, the “Food-maintained performance, Food 1 and Food 2” value ([2]; 10 mg/kg i.m., monkeys 89B013 and RQ2215) was “unchanged” and the “Food-maintained responding, Food 2” value ([2]; 10 mg/kg i.m., monkeys 96D155 and 93N082) was “decreased food-maintained responding”. The “Food-maintained behavior, Food 1” value ([2]; 18 mg/kg i.m., any monkey) was “not appreciably affected”, the “Decrease in self-administration of the peak unit dose of i.v. cocaine” value ([2]; 18 mg/kg i.m., monkey 89B013) was “approximately 50%” and the “Food-maintained behavior, Food 2” value ([2]; 18 mg/kg i.m., monkeys 89B013 and 93N082) was “greatly decreased”. For the same compound, the “Food-maintained behavior, Food 2” value ([2]; 18 mg/kg i.m., monkeys 96D155 and RQ2215) was “did not change behavior”, the “Effect on i.v. self-administration behavior” value ([2]; 18 mg/kg i.m., remaining three subjects) was “did not appreciably alter” and the “Decrease in self-administration of the peak unit dose of i.v. cocaine” value ([2]; 32 mg/kg i.m. 30 min before session, averaged for the group of monkeys) was “approximately 50%”. For the same compound, the “Effect on food-maintained behavior” value ([2]; 32 mg/kg i.m. (18 or 32 mg/kg), prior to or following cocaine components) was “without consistently disrupting food-maintained behavior; also recorded: did not consistently alter”, the “Effect on self-administration of the peak unit dose of i.v. cocaine” value ([2]; 32 mg/kg i.m., averaged for the group) was “markedly decreased” and the “Reduction of self-administration of the peak unit dose of i.v. cocaine” value ([2]; 32 mg/kg i.m., each of the three monkeys studied) was at least 50%. For the same compound, the “Food-maintained performance, Food 1 and Food 2” value ([2]; 32 mg/kg i.m., monkey 93N082) was “markedly decreased”, the “Food-maintained responding, either food component” value ([2]; 32 mg/kg i.m., monkeys 96D155 and RQ2215) was “did not alter responding” and the “Effect on food-maintained behavior” value ([2]; pretreatment doses 10-32 mg/kg i.m., averaged for the group, dose-ranging studies) was “only inconsistent effects”. For the same compound, the “Displacement of the descending portion of the cocaine dose-effect curve” value ([3]; 32 mg/kg i.m.) was “leftward and upward displacement”, the “Effect on responding during availability of saline or low unit doses of i.v. cocaine (0.001-0.01 mg/kg)” value [3, 4] was “either increased or did not change response rates; also recorded: increased responding” and the “Effect on self-administration of higher unit doses of i.v. cocaine (0.032-0.32 mg/kg)” value [3, 4] was “decreased cocaine self-administration behavior”. For the same compound, the “Decrease in food-maintained responding (averaged response rates), Food 1 and Food 2” value ([3]; 32 mg/kg i.m., averaged for the group, rapid assessment) was over 50%, the “Decrease in food-maintained responding, Food 1” value ([3]; 32 mg/kg i.m., monkey RQ2215) was 40% and the “Responding during availability of saline or unit doses of i.v. cocaine 0.001-0.032 mg/kg/injection” value ([3]; 32 mg/kg i.m., monkey RQ2215) was “inconsistently increased”. For the same compound, the “Responding during availability of unit doses of 0.1 and 0.32 mg/kg cocaine” value ([3]; 32 mg/kg i.m., monkey RQ2215) was “unchanged”, the “Food-maintained responding, Food 1” value ([3]; 32 mg/kg i.m., monkeys 93N082 and 97D105) was “nearly eliminated” and the “Effect on i.v. self-administration during availability of higher unit doses of cocaine” value [3, 5] was “reduced i.v. self-administration behavior”. For the same compound, the “Effect on responding during availability of saline or low unit doses of cocaine (0.001-0.01 mg/kg)” value [3, 5] was “increased responding” and the “Food-maintained responding, Food 2” value [3, 5] was “nearly eliminated”.
